Assay results from patent US7524487B2, “Compositions and methods for modulating interleukin-10” (University of Maryland, priority 2005, dated 2009).
Like-named read-outs stand apart in the source and are kept apart here.

Experiments:
ERK1/2 = experiment: Western blot of ERK activation (phospho-ERK) in macrophages; type: cell-based, mice; details: macrophages stimulated with LPS 10 ng/ml plus the agent, versus LPS alone
Procedure: FIG. 1 is a Western blot showing the kinetics of MAPK activation in bone marrow derived macrophages (BMMφ) stimulated with (LPS) alone or LPS in combination with E-IgG, an immune complex that ligates the FcγR. BMMφ were stimulated with LPS (10 ng/ml)±E-IgG. Cells were then lysed at the indicated times and equal amounts of whole cell lysates were separated by SDS PAGE and analyzed by Western blotting using phospho-specific Abs to ERK1/2, p38 or JNK. Total ERK1/2 (bottom panel) was used as the loading control.
Western blots. 2×10^6 BMMφper well were plated overnight in 60 mm culture dishes. […]
Cells were lysed at various indicated times and ERK activation was measured by Western Blot using antibodies to phosphorylated ERK (FIG. 9B).
ERK activation was analyzed at the indicated times by Western Blot, using antibodies to phosphorylated ERK.

[1] = system: bone marrow derived macrophages (BMMφ); experiment: Cytokine ELISA on supernatants of stimulated bone marrow derived macrophages (LPS ± E-IgG)
IL-10 promoter = experiment: ChIP of histone H3 phosphorylation at the IL-10 promoter in stimulated BMMφ; type: cell-based, mice; details: BMMφ pretreated 30 min with PD98059 10 μM or SB203580 1 μM, then IgG-OVA + LPS for 40 min
Procedure: BMMφ were stimulated with medium (open bars), LPS (solid bars) or E-IgG+LPS (striped bars) for 15 minutes (A), or the indicated times (B) and ChIP assays were carried out as described in Materials and Methods. Immunoprecipitations utilized antibodies specific to phospho-H3 (left panel) or acetyl-H3 (right panel). A. conventional RT-PCR and B. real time PCR were carried out using IL-10 promoter or IL-12p40 promoter specific primers. For real time PCR, samples were normalized to input DNA controls.
Cells were pretreated with PD98059 (10 μM), SB203580 (1 μM) or medium for 30 min then stimulated with medium (open bar), IgG-OVA (dotted bar), LPS (solid bar), or both (striped bars) for 40 min. ChIP analysis was carried out using a phospho-H3 specific Ab. A. Conventional RT-PCR was carried out using IL-10 promoter or IL-12p40 promoter specific primers. B. Real time PCR analysis of samples obtained in A. Samples were normalized to input DNA controls.
FIG. 22 is a graph showing Inhibition of histone modifications by blocking ERK. BMMφ were pre-treated with PD98059 (15 μM) (solid bars) or drug vehicle (open bars) for 1 hour and then stimulated with IC plus LPS (10 ng/mL). Cross-linked chromatin fragments were immunoprecipitated with antibody to phosphorylated histone H3 at Ser 10 or antibody to Sp1. The DNA was purified and analyzed for the presence of IL-10 promoter sequences corresponding to nucleosome −2 by QRT-PCR. The data were plotted graphically as the percentage change relative to drug vehicle (IC/LPS) at 30 min post-stimulation for histone H3 phosphorylation, and at 45 min post-stimulation for Sp1 recruitment. One representative from two independent experiments is presented.
Chromatin immunoprecipitation (ChIP). ChIPs were carried out using the ChIP Assay kit following the manufacturer's protocol (Upstate USA, Inc., Lake Placid, N.Y.). Briefly, 1×10^6 BMMφ were plated overnight in 6-well plates. Cells were stimulated as described in Figure Legends then fixed for 10 min at 37° C. in paraformaldehyde (1% final concentration). […]

BMMφ = experiment: Cytokine ELISA (IL-10, IL-12) after HDAC inhibitor treatment of BMMφ stimulated with LPS+IC; type: cell-based, mice; details: TSA added to BMMφ for 1 hr, washed, then 10 ng/ml LPS+IC for 6 hrs
Procedure: FIG. 21 is a graph showing cytokine production following histone deacetylation. TSA was added to BMMφ for 1 hr and the cells were then washed with warmed medium before stimulation with 10 ng/ml LPS+IC. After LPS+IC stimulation for 6 hrs, the supernatants were collected and IL-10 and IL-12 were measured by ELISA. Results shown are one representative from two independent experiments conducted in triplicate (mean±SD).
To further examine histone acetylation, macrophages were treated with increasing doses of the HDAC inhibitor, TSA, prior to stimulation. IL-10 levels were measured 6 hrs later. […] This observation is consistent with the hypothesis that an increase in histone H3 acetylation was not a pre-requisite for IL-10 gene transcription following stimulation by LPS+IC.

CCCCCCCCCCCCCC(=O)O[C@@H]1[C@@H](C)[C@@]2(O)[C@@H](C=C(CO)C[C@]3(O)C(=O)C(C)=C[C@@H]23)[C@@H]2C(C)(C)[C@]12OC(C)=O [PMA, phorbol 12-myristate 13-acetate]
ERK activation (phosphorylated ERK, Western blot) (ERK1/2): activated | IL-10 production (ELISA) of LPS-stimulated macrophages in presence of the ERK activator [1]: induced

C[S+]([O-])c1ccc(-c2nc(-c3ccncc3)c(-c3ccc(F)cc3)[nH]2)cc1 (centres unmarked) [SB203580]
histone H3 phosphorylation at the IL-10 promoter induced by immune complex (ChIP) (IL-10 promoter): decreasing it substantially, but not reducing it to background levels | IL-10 secretion (ELISA) ([1]; BMMφ pretreated 30 min with PD98059 10 μM, SB203580 1 μM or JNK inhibitory peptide 1 μM, then LPS 10 ng/ml ± E-IgG, supernatants after 20 h): substantial inhibition | IL-12 (p40) production (ELISA) ([1]; BMMφ pretreated 30 min with inhibitor, then LPS 10 ng/ml ± E-IgG, 20 h): Neither of these inhibitors decreased | LPS-induced IL-10 production ([1]; BMMφ, LPS 10 ng/ml alone, 20 h, inhibitor pretreatment or 100 nM siRNA): prevented

CC(/C=C/C(=O)NO)=C\[C@@H](C)C(=O)c1ccc(N(C)C)cc1 [TSA, Trichostatin A]
IL-10 production (ELISA) (BMMφ): failed to influence | IL-12 production (ELISA) (BMMφ): substantially inhibit

B1: CSF-1: colony stimulating factor-1, an ERK activating agent identified by the screening method (protein, UniProt P09603 33-554, looked up)
Macrophage colony-stimulating …: EEVSEYCSHMIGSGHLQSLQRLIDSQMETSCQITFEFVDQEQLKDPVCYLKKAFLLVQDIMEDTMRFRDNTPNAIAIVQLQELSLRLKSCFTKDYEEHDKACVRTFYETPLQLLEKVKNVFNETKNLLDKDWNIFSKNCNNSFAECSSQDVVTKPDCNCLYPKAIPSSDPASVSPHQPLAPSMAPVAGLTWEDSEGTEGSSLLPGEQPLHTVDPGSAKQRPPRSTCQSFEPPETPVVKDSTIGGSPQPRPSVGAFNPGMEDILDSAMGTNWVPEEASGEASEIPVPQGTELSPSRPGGGSMQTEPARPSNFLSASSPLPASAKGQQPADVTGTALPRVGPVRPTGQDWNHTPQKTDHPSALLRDPPEPGSPRISSLRPQGLSNPSTLSAQPQLSRSHSSGSVLPLGELEGRRSTRDRRSPAEPEGGPASEGAARPLPRFNSVPLTDTGHERQSEGSFSPQLQESVFHLLVPSVILVLLAVGGLLFYRWRRRSHQEPQRADSPLEQPEGSPLTQDDRQVELPV
ERK activation (phosphorylated ERK, Western blot) (ERK1/2): activated | IL-10 production (ELISA) of LPS-stimulated macrophages in presence of the ERK activator ([1]; LPS plus agent versus LPS alone, CSF-1 100 ng/ml added simultaneously with LPS, IL-10 measured 20 hrs later): induce more IL-10 | IL-10 induction by the agent on its own ([1]; macrophages without inflammatory stimulus): does not induce IL-10 on its own
